This is an account of results in ChEMBL document CHEMBL2074498, “Induction of the multispecific organic anion transporter (cMoat/mrp2) gene and biliary glutathione secretion by the herbicide 2,4,5-trichlorophenoxyacetic acid in the mouse liver” (Biochem J, 1999).

Data set [1] concerns the target T1, ATP-binding cassette sub-family C member 2 (Mus musculus, UniProt Q8VI47). The data set can be described thus: TP_TRANSPORTER: Western in vivo, liver of CF I mouse. It is filed as functional, organism-based.
Data set [2] concerns the target T1, ATP-binding cassette sub-family C member 2. The data set can be described thus: TP_TRANSPORTER: Northern blot in vivo, liver of CF I mouse. It is filed as functional, organism-based.

T1 sequence (Q8VI47 whole entry): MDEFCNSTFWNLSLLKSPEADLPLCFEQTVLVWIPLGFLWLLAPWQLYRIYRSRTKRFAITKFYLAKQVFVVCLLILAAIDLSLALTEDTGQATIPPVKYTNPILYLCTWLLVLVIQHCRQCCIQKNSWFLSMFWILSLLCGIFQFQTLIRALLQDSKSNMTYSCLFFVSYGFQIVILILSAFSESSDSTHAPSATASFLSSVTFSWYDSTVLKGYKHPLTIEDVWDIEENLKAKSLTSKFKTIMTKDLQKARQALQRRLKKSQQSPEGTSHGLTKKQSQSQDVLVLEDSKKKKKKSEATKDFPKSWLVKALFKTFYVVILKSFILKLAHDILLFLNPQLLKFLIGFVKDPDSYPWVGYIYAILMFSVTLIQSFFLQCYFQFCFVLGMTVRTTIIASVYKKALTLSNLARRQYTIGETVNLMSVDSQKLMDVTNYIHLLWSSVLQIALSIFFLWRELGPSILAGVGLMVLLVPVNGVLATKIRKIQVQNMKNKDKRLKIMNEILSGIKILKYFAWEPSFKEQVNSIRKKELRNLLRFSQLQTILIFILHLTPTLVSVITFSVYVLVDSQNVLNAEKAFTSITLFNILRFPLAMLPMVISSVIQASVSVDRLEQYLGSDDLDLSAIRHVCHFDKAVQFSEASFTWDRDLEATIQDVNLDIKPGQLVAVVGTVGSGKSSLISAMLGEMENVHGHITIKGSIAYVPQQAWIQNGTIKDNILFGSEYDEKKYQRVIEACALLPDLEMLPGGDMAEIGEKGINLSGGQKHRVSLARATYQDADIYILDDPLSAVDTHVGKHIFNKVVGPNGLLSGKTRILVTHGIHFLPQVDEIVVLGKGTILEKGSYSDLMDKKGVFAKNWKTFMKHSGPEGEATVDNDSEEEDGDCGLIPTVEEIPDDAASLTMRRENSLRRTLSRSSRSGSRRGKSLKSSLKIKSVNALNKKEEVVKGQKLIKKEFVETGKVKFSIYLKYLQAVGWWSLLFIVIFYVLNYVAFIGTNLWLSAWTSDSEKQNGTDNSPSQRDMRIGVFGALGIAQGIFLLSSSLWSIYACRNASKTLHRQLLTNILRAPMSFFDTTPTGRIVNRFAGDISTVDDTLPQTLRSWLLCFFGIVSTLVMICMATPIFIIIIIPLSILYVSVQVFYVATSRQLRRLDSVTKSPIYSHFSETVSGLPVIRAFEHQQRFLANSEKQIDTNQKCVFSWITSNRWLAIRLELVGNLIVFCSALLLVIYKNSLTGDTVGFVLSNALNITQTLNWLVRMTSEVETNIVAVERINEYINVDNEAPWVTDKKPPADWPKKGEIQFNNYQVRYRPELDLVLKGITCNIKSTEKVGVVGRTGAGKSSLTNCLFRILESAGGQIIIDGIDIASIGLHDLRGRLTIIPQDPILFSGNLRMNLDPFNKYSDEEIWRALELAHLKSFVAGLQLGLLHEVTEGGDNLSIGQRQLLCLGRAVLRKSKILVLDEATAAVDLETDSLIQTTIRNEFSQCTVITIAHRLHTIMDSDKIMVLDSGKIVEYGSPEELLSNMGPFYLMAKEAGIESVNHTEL

Consider `O=C(O)COc1cc(Cl)c(Cl)cc1Cl` [2,4,5-TRICHLOROPHENOXYACETIC ACID], for which the Activity entry in data set [1] and in data set [2] was “inducer [+]” throughout.
